Measurements as given in patent US20200369630A1, “HERBICIDALLY ACTIVE 3-PHENYL-5-TRIFLUOROMETHYLISOXAZOLINE-5-CARBOXAMIDES OF CYCLOPENTYLCARBOXYLIC ACIDS AND ESTERS” (Bayer Aktiengesellschaft, priority 2017, published 2020).

Columns and labels:
Format in all cases: in vivo
[1] = system: ABUTH: Abutilon theophrasti; assay: Pre-emergence herbicidal action; conditions: Table C1, pre-emergence, 80 g/ha, scored visually after about 3 weeks
Text: (§1) Seeds of monocotyledonous and dicotyledonous weed plants and crop plants are placed in plastic or wood fiber pots and covered with soil. The compounds of the invention, formulated in the form of wettable powders (WP) or as emulsion concentrates (EC), are then applied onto the surface of the covering soil as aqueous suspension or emulsion with addition of 0.5% additive at a water application rate of […] (converted). After the treatment, the pots are placed in a greenhouse and kept under good growth conditions for the trial plants. After about 3 weeks, the effect of the preparations is scored visually in comparison with untreated controls as percentages. For example, 100% activity=the plants have died, 0% activity=like control plants. [table]

[2] = system: ALOMY: Alopecurus myosuroides; assay: Pre-emergence herbicidal action
Text: as §1

[3] = system: AMARE: Amaranthus retroflexus; assay: Pre-emergence herbicidal action
Text: as §1

AVEFA: Avena fatua [4] = assay: Pre-emergence herbicidal action
Text: as §1

[5] = system: ECHCG: Echinochloa crus-galli; assay: Pre-emergence herbicidal action; conditions: Table C1, pre-emergence, 80 g/ha, scored visually after about 3 weeks
Text: as §1

HORMU: Hordeum murinum [6] = assay: Pre-emergence herbicidal action; conditions: Table C1, pre-emergence, 80 g/ha, scored visually after about 3 weeks
Text: as §1

LOLRI: Lolium rigidum [7] = assay: Pre-emergence herbicidal action; conditions: Table C1, pre-emergence, 80 g/ha, scored visually after about 3 weeks
Text: as §1

[8] = system: MATIN: Matricaria inodora; assay: Pre-emergence herbicidal action; conditions: Table C1, pre-emergence, 80 g/ha, scored visually after about 3 weeks
Text: as §1

PHBPU: Ipomoea purpurea = assay: Pre-emergence herbicidal action; conditions: Table C1, pre-emergence, 80 g/ha, scored visually after about 3 weeks
Text: as §1

SETVI: Setaria viridis [9] = assay: Pre-emergence herbicidal action
Text: as §1

STEME: Stellaria media [10] = assay: Pre-emergence herbicidal action
Text: as §1

VERPE: Veronica persica [11] = assay: Pre-emergence herbicidal action
Text: as §1

VIOTR: Viola tricolor [12] = assay: Pre-emergence herbicidal action
Text: as §1

[13] = system: ALOMY: Alopecurus myosuroides; assay: Post-emergence herbicidal action; conditions: rated visually after about 3 weeks
Procedure: (§2) [table] Seeds of monocotyledonous and dicotyledonous weeds and crop plants are placed in sandy loam in plastic or wood-fiber pots, covered with soil and cultivated in a greenhouse under controlled growth conditions. 2 to 3 weeks after sowing, the test plants are treated at the one-leaf stage. The compounds of the invention, formulated in the form of wettable powders (WP) or as emulsion concentrates (EC), are then sprayed onto the green parts of the plants as aqueous suspension or emulsion with addition of 0.5% additive at a water application rate of […] (converted). After the test plants had been kept in the greenhouse under optimum growth conditions for about 3 weeks, the activity of the preparations is rated visually in comparison to untreated controls. For example, 100% activity=the plants have died, 0% activity=like control plants.

[14] = system: AMARE: Amaranthus retroflexus; assay: Post-emergence herbicidal action; conditions: rated visually after about 3 weeks
Procedure: as §2

AVEFA: Avena fatua [15] = assay: Post-emergence herbicidal action; conditions: rated visually after about 3 weeks
Procedure: as §2

[16] = system: ECHCG: Echinochloa crus-galli; assay: Post-emergence herbicidal action; conditions: rated visually after about 3 weeks
Procedure: as §2

HORMU: Hordeum murinum [17] = assay: Post-emergence herbicidal action; conditions: rated visually after about 3 weeks
Procedure: as §2

LOLRI: Lolium rigidum [18] = assay: Post-emergence herbicidal action; conditions: rated visually after about 3 weeks
Procedure: as §2

[19] = system: POLCO: Polygonum convolvulus; assay: Post-emergence herbicidal action; conditions: rated visually after about 3 weeks
Procedure: as §2

STEME: Stellaria media [20] = assay: Post-emergence herbicidal action
Procedure: as §2

VERPE: Veronica persica [21] = assay: Post-emergence herbicidal action; conditions: rated visually after about 3 weeks
Procedure: as §2

SETVI: Setaria viridis [22] = assay: Post-emergence herbicidal action; conditions: Table C3, post-emergence, 320 g/ha, rated visually after about 3 weeks
Procedure: as §2

VIOTR: Viola tricolor [23] = assay: Post-emergence herbicidal action; conditions: Table C3, post-emergence, 320 g/ha, rated visually after about 3 weeks
Procedure: as §2

DIGSA = assay: Post-emergence herbicidal action; conditions: Table C3, post-emergence, 320 g/ha, rated visually after about 3 weeks
Procedure: as §2, with “Seeds” for “[table] Seeds”

[24] = system: ABUTH: Abutilon theophrasti; assay: Post-emergence herbicidal action; conditions: Second Table C3, superiority with respect to WO 2012/130798, post-emergence, 80 g/ha
Procedure: as §2

[25] = system: POLCO: Polygonum convolvulus; assay: Pre-emergence herbicidal action; conditions: Table C1, pre-emergence, 80 g/ha, scored visually after about 3 weeks
Text: as §1

[26] = Table C1, pre-emergence, 80 g/ha, scored visually after about 3 weeks
[27] = Table C2, post-emergence, dosage 320 (0.32 kg of active substance per hectare)
[28] = Table C2, post-emergence, dosage 320 (0.32 kg of active substance per hectare), rated visually after about 3 weeks
[29] = Table C3, post-emergence, 320 g/ha
[30] = Second Table C4, superiority with respect to WO 2012/130798, pre-emergence, 20 g/ha
[31] = Table C4, post-emergence, 320 g/ha

Compound | Herbicidal action against [%] ALOMY [13, 27] | Herbicidal action against [%] AMARE [14, 27] | Herbicidal action against [%] AVEFA (AVEFA: Avena fatua [15]; [27]) | Herbicidal action against [%] ECHCG [16, 27] | Herbicidal action against [%] HORMU (HORMU: Hordeum murinum [17]; [27]) | Herbicidal action against [%] LOLRI (LOLRI: Lolium rigidum [18]; [27]) | Herbicidal action against [%] POLCO [19, 27] | Herbicidal action against [%] STEME (STEME: Stellaria media [20]; [28]) | Herbicidal action against [%] VERPE (VERPE: Veronica persica [21]; [27]) | Herbicidal action against [%] ALOMY [13, 29] | Herbicidal action against [%] AMARE [14, 29] | Herbicidal action against [%] AVEFA (AVEFA: Avena fatua [15]; [29]) | Herbicidal action against [%] ECHCG [16, 29] | Herbicidal action against [%] HORMU (HORMU: Hordeum murinum [17]; [29]) | Herbicidal action against [%] LOLRI (LOLRI: Lolium rigidum [18]; [29]) | Herbicidal action against [%] POLCO [19, 29] | Herbicidal action against [%] SETVI (SETVI: Setaria viridis [22]) | Herbicidal action against [%] VERPE (VERPE: Veronica persica [21]; [29]) | Herbicidal action against [%] VIOTR (VIOTR: Viola tricolor [23]) | Herbicidal action against [%] DIGSA (DIGSA) | further results
O=C(OCCCl)C1CCC(NC(=O)C2(C(F)(F)F)CC(c3cc(F)cc(F)c3)=NO2)C1 (mixture of isomers) [Example I-99] | 90% | 90% | 90% | 90% | 90% | 100% | 80% | 90% | 90% | – | – | – | – | – | – | – | – | – | – | – | Herbicidal action against [%] ABUTH [1]: 80%; Herbicidal action against [%] ALOMY [2, 26]: 100%; Herbicidal action against [%] AMARE [3, 26]: 100%; Herbicidal action against [%] AVEFA (AVEFA: Avena fatua [4]; [26]): 90%; Herbicidal action against [%] ECHCG [5]: 90%; Herbicidal action against [%] HORMU (HORMU: Hordeum murinum [6]): 100%; Herbicidal action against [%] LOLRI (LOLRI: Lolium rigidum [7]): 100%; Herbicidal action against [%] MATIN [8]: 80%; Herbicidal action against [%] PHBPU (PHBPU: Ipomoea purpurea): 90%; Herbicidal action against [%] SETVI (SETVI: Setaria viridis [9]; [26]): 100%; Herbicidal action against [%] STEME (STEME: Stellaria media [10]; [26]): 100%; Herbicidal action against [%] VERPE (VERPE: Veronica persica [11]; [26]): 100%; Herbicidal action against [%] VIOTR (VIOTR: Viola tricolor [12]; [26]): 100%
COC(=O)C1CCC(NC(=O)C2(C(F)(F)F)CC(c3cc(C)cc(F)c3)=NO2)C1 (mixture of isomers) [Example I-537] | – | – | – | – | – | – | – | – | – | 90% | 100% | 90% | 100% | 80% | 90% | 90% | 90% | 100% | 100% | 90% | –
Cc1cc(F)cc(C2=NOC(C(=O)NC3CCC(C(=O)OCCCl)C3)(C(F)(F)F)C2)c1 (mixture of isomers) [Example I-574] | – | – | – | – | – | – | – | – | – | 100% | 100% | 100% | 90% | 80% | 90% | 80% | 90% | 90% | 80% | 80% | –
Cc1cc(F)cc(C2=NOC(C(=O)NC3CCC(C(=O)OCC(F)(F)F)C3)(C(F)(F)F)C2)c1 (mixture of isomers) [Example I-580] | – | – | – | – | – | – | – | – | – | 90% | 90% | 100% | 80% | 90% | 90% | 80% | 90% | 90% | 100% | 90% | –
CCOC(=O)C1CCC(NC(=O)C2(C(F)(F)F)CC(c3cc(C)cc(Cl)c3)=NO2)C1 (mixture of isomers) [Example I-808] | – | – | – | – | – | – | – | – | – | 90% | 80% | 90% | 80% | 90% | 90% | 100% | 90% | 90% | 80% | 90% | –
CCOC(=O)C1CCC(NC(=O)C2(C)CC(c3cc(F)cc(F)c3)=NO2)C1 (centres unmarked) [Example 6.736, reference compound] | – | – | – | – | – | – | – | – | – | – | – | – | – | – | – | – | – | – | – | – | Herbicidal action against [%] ALOMY [2, 30]: 70%; Herbicidal action against [%] AMARE [3, 30]: 0%; Herbicidal action against [%] AVEFA (AVEFA: Avena fatua [4]; [30]): 50%; Herbicidal action against [%] SETVI (SETVI: Setaria viridis [9]; [30]): 20%; Herbicidal action against [%] STEME (STEME: Stellaria media [10]; [30]): 50%; Herbicidal action against [%] VERPE (VERPE: Veronica persica [11]; [30]): 70%; Herbicidal action against [%] VIOTR (VIOTR: Viola tricolor [12]; [30]): 0%; Herbicidal action against [%] ABUTH [24]: 60%; Herbicidal action against [%] STEME (STEME: Stellaria media [20]; Second Table C3, superiority with respect to WO 2012/130798, post-emergence, 80 g/ha): 50%
CCOC(=O)[C@@H]1CC[C@H](NC(=O)[C@@]2(C(F)(F)F)CC(c3cc(F)cc(F)c3)=NO2)C1 [Example I-39, ethyl (1R,3S)-3-({[(5R)-3-(3,5-difluorophenyl)-5-(trifluoromethyl)-4,5-dihydro-1,2-oxazol-5-yl]carbonyl}amino)cyclopentanecarboxylate] | – | – | – | – | – | – | – | – | – | – | – | – | – | – | – | – | – | – | – | – | Herbicidal action against [%] ABUTH [1]: 70%; Herbicidal action against [%] ALOMY [2, 26]: 100%; Herbicidal action against [%] AMARE [3, 26]: 100%; Herbicidal action against [%] AVEFA (AVEFA: Avena fatua [4]; [26]): 100%; Herbicidal action against [%] ECHCG [5]: 100%; Herbicidal action against [%] HORMU (HORMU: Hordeum murinum [6]): 90%; Herbicidal action against [%] LOLRI (LOLRI: Lolium rigidum [7]): 100%; Herbicidal action against [%] MATIN [8]: 90%; Herbicidal action against [%] PHBPU (PHBPU: Ipomoea purpurea): 80%; Herbicidal action against [%] POLCO [25]: 100%; Herbicidal action against [%] SETVI (SETVI: Setaria viridis [9]; [26]): 100%; Herbicidal action against [%] VIOTR (VIOTR: Viola tricolor [12]; [26]): 100%; Herbicidal action against [%] ALOMY [13, 31]: 100%; Herbicidal action against [%] AMARE [14, 31]: 80%; Herbicidal action against [%] HORMU (HORMU: Hordeum murinum [17]; [31]): 100%; Herbicidal action against [%] LOLRI (LOLRI: Lolium rigidum [18]; [31]): 90%; Herbicidal action against [%] POLCO [19, 31]: 80%
CC(C)(C)OC(=O)[C@@H]1CC[C@H](NC(=O)[C@@]2(C(F)(F)F)CC(c3cc(F)cc(F)c3)=NO2)C1 [Example I-95] | 90% | 80% | 100% | 80% | 90% | 100% | 90% | 90% | 80% | – | – | – | – | – | – | – | – | – | – | – | –
O=C(OCCCl)[C@@H]1CC[C@H](NC(=O)[C@@]2(C(F)(F)F)CC(c3cc(F)cc(F)c3)=NO2)C1 [Example I-109, 2-chloroethyl-(1R,3S)-3-({[(5R)-3-(3,5-difluorophenyl)-5-(trifluoromethyl)-4,5-dihydro-1,2-oxazol-5-yl]carbonyl}amino)cyclopentanecarboxylate] | 90% | 80% | 90% | 90% | 90% | 80% | 80% | 90% | 80% | – | – | – | – | – | – | – | – | – | – | – | –
O=C(OCC(F)(F)F)[C@@H]1CC[C@H](NC(=O)[C@@]2(C(F)(F)F)CC(c3cc(F)cc(F)c3)=NO2)C1 [Example I-123] | 90% | 80% | 90% | 80% | 90% | 100% | 90% | 90% | 80% | – | – | – | – | – | – | – | – | – | – | – | –
